Assay results: ChEMBL document CHEMBL3091333, “Design, synthesis and biological evaluation of novel 4-anilinoquinazolines with C-6 urea-linked side chains as inhibitors of the epidermal growth factor receptor” (Bioorg Med Chem, 2013)
Activity calls are given as the source filed them. No cut-off for these calls is given here.

Key:
[1] = test system: NCI-H1975; assay: Antiproliferative activity against human NCI-H1975 cells expressing EGFR T790M mutant after 72 hrs by SRB assay; format: functional, cell-based; details: NCI-H1975, 72 h
[2] = molecular target: Epidermal growth factor receptor (Homo sapiens, UniProt P00533, L858M/T790M); assay: Inhibition of EGFR T790M/[…] double mutant (unknown origin) expressed in baculovirus expression system using poly (Glu, Tyr) 4:1 as substrate after 60 mins by ELISA
[3] = molecular target: T1, Epidermal growth factor receptor (Homo sapiens, UniProt P00533); assay: Inhibition of wild type EGFR (unknown origin) expressed in baculovirus expression system using poly (Glu, Tyr) 4:1 as substrate after 60 mins by ELISA
[4] = test system: A-431; assay: Antiproliferative activity against human A431 cells after 72 hrs by SRB assay; format: functional, cell-based; details: A-431, 72 h
[5] = test system: Epidermal growth factor receptor (Homo sapiens), P00533 [T790M]; assay: Inhibition of EGF-induced EGFR T790M mutant autophosphorylation in human NCI-H1975 cells at 10 uM incubated for 1 hr prior to EGF induction measured after 10 mins by Western blotting analysis; format: cell-based
[6] = molecular target: Fibroblast growth factor receptor 1 (Homo sapiens, UniProt P11362); assay: Inhibition of FGFR1 (unknown origin) expressed in baculovirus expression system using poly (Glu, Tyr) 4:1 as substrate after 60 mins by ELISA
[7] = molecular target: Insulin-like growth factor 1 receptor (Homo sapiens, UniProt P08069); assay: Inhibition of IGF1R (unknown origin) expressed in baculovirus expression system using poly (Glu, Tyr) 4:1 as substrate after 60 mins by ELISA
[8] = molecular target: Ephrin type-A receptor 2 (Homo sapiens, UniProt P29317); assay: Inhibition of recombinant EPHA2 (unknown origin) using poly (Glu, Tyr) 4:1 as substrate after 60 mins by ELISA
[9] = molecular target: Platelet-derived growth factor receptor beta (Homo sapiens, UniProt P09619); assay: Inhibition of recombinant PDGFR-beta (unknown origin) using poly (Glu, Tyr) 4:1 as substrate after 60 mins by ELISA
[10] = molecular target: Platelet-derived growth factor receptor alpha (Homo sapiens, UniProt P16234); assay: Inhibition of recombinant PDGFR-alpha (unknown origin) using poly (Glu, Tyr) 4:1 as substrate after 60 mins by ELISA
[11] = molecular target: Mast/stem cell growth factor receptor Kit (Homo sapiens, UniProt P10721); assay: Inhibition of recombinant c-Kit (unknown origin) using poly (Glu, Tyr) 4:1 as substrate after 60 mins by ELISA
[12] = molecular target: Vascular endothelial growth factor receptor 1 (Homo sapiens, UniProt P17948); assay: Inhibition of recombinant FLT-1 (unknown origin) using poly (Glu, Tyr) 4:1 as substrate after 60 mins by ELISA
[13] = molecular target: Tyrosine-protein kinase ABL1 (Homo sapiens, UniProt P00519); assay: Inhibition of recombinant ABL (unknown origin) using poly (Glu, Tyr) 4:1 as substrate after 60 mins by ELISA
[14] = molecular target: Macrophage-stimulating protein receptor (Homo sapiens, UniProt Q04912); assay: Inhibition of recombinant RON (unknown origin) using poly (Glu, Tyr) 4:1 as substrate after 60 mins by ELISA
[15] = molecular target: Proto-oncogene tyrosine-protein kinase receptor Ret (Homo sapiens, UniProt P07949); assay: Inhibition of recombinant RET (unknown origin) using poly (Glu, Tyr) 4:1 as substrate after 60 mins by ELISA
[16] = molecular target: Receptor tyrosine-protein kinase erbB-4 (Homo sapiens, UniProt Q15303); assay: Inhibition of recombinant ErbB4 (unknown origin) using poly (Glu, Tyr) 4:1 as substrate after 60 mins by ELISA
[17] = molecular target: Receptor tyrosine-protein kinase erbB-2 (Homo sapiens, UniProt P04626); assay: Inhibition of ErbB2 (unknown origin) expressed in baculovirus expression system using poly (Glu, Tyr) 4:1 as substrate after 60 mins by ELISA
[18] = molecular target: T1, Epidermal growth factor receptor; assay: Irreversible inhibition of EGFR (unknown origin) using 5-FAM-EEPLYWSFPAKKK-CONH2 as substrate at 100 fold IC50 preincubated for 30 mins followed by 100 fold dilution measured for 2 hrs
[19] = test system: Epidermal growth factor receptor (Homo sapiens), P00533 [T790M]; assay: Inhibition of EGF-induced EGFR T790M mutant phosphorylation in human NCI-H1975 cells assessed as AKT phosphorylation at < 10 uM incubated for 1 hr prior to EGF induction measured after 10 mins by Western blotting analysis; format: cell-based
[20] = test system: Epidermal growth factor receptor (Homo sapiens), P00533 [T790M]; assay: Inhibition of EGF-induced EGFR T790M mutant phosphorylation in human NCI-H1975 cells assessed as ERK phosphorylation at < 10 uM incubated for 1 hr prior to EGF induction measured after 10 mins by Western blotting analysis; format: cell-based
[21] = molecular target: Vascular endothelial growth factor receptor 2 (Homo sapiens, UniProt P35968); assay: Inhibition of KDR (unknown origin) expressed in baculovirus expression system using poly (Glu, Tyr) 4:1 as substrate after 60 mins by ELISA
[22] = molecular target: T1, Epidermal growth factor receptor; assay: Inhibition of EGF-induced EGFR phosphorylation in human A431 cells assessed as decrease in ERK phosphorylation at 0.01 to 10 uM incubated for 1 hr prior to EGF induction measured after 10 mins by Western blotting analysis; format: cell-based; details: A-431
[23] = molecular target: T1, Epidermal growth factor receptor; assay: Inhibition of EGF-induced EGFR phosphorylation in human A431 cells assessed as decrease in AKT phosphorylation at 0.01 to 10 uM incubated for 1 hr prior to EGF induction measured after 10 mins by Western blotting analysis; format: cell-based; details: A-431
[24] = molecular target: T1, Epidermal growth factor receptor; assay: Inhibition of EGF-induced EGFR phosphorylation in human A431 cells at 0.01 uM incubated for 1 hr prior to EGF induction measured after 10 mins by Western blotting analysis; format: cell-based; details: A-431
[25] = molecular target: T1, Epidermal growth factor receptor; assay: Inhibition of EGF-induced EGFR phosphorylation in human A431 cells incubated for 1 hr prior to EGF induction measured after 10 mins by Western blotting analysis; format: cell-based; details: A-431

Epidermal growth factor receptor (Homo sapiens, UniProt P00533, L858M/T790M), sequence (P00533 25-1210 T790M/L858M limits assumed): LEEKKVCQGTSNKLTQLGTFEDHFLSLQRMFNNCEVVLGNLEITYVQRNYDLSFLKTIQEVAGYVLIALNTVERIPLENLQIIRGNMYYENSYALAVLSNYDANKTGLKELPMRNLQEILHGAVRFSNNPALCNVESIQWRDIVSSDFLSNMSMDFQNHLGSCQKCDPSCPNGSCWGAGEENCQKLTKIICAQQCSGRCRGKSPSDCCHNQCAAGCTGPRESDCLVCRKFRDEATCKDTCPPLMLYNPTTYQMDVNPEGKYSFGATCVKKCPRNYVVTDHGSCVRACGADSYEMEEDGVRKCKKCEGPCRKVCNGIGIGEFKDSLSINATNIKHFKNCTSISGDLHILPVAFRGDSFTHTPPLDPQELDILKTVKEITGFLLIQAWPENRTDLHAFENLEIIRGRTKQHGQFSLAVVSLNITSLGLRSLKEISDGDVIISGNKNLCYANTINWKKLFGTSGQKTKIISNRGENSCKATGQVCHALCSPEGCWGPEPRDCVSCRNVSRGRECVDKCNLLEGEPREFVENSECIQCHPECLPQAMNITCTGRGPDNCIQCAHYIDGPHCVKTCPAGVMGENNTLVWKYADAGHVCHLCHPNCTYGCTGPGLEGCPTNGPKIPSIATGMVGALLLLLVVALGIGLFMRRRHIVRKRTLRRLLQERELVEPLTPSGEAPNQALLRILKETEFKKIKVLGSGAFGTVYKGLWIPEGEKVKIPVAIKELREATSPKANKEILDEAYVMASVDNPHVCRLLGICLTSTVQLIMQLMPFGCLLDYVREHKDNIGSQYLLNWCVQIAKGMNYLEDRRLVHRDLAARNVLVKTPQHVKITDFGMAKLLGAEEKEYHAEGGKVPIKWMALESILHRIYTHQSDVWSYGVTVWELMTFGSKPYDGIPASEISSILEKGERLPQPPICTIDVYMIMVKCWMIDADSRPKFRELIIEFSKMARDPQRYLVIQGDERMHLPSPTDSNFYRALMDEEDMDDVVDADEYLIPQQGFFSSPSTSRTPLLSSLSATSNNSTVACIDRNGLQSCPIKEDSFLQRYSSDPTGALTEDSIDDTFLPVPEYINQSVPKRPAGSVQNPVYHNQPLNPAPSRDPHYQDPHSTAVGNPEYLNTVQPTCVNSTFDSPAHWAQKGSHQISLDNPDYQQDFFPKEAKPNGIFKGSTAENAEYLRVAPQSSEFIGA
Epidermal growth factor receptor (Homo sapiens), P00533 [T790M], sequence (P00533 whole entry T790M): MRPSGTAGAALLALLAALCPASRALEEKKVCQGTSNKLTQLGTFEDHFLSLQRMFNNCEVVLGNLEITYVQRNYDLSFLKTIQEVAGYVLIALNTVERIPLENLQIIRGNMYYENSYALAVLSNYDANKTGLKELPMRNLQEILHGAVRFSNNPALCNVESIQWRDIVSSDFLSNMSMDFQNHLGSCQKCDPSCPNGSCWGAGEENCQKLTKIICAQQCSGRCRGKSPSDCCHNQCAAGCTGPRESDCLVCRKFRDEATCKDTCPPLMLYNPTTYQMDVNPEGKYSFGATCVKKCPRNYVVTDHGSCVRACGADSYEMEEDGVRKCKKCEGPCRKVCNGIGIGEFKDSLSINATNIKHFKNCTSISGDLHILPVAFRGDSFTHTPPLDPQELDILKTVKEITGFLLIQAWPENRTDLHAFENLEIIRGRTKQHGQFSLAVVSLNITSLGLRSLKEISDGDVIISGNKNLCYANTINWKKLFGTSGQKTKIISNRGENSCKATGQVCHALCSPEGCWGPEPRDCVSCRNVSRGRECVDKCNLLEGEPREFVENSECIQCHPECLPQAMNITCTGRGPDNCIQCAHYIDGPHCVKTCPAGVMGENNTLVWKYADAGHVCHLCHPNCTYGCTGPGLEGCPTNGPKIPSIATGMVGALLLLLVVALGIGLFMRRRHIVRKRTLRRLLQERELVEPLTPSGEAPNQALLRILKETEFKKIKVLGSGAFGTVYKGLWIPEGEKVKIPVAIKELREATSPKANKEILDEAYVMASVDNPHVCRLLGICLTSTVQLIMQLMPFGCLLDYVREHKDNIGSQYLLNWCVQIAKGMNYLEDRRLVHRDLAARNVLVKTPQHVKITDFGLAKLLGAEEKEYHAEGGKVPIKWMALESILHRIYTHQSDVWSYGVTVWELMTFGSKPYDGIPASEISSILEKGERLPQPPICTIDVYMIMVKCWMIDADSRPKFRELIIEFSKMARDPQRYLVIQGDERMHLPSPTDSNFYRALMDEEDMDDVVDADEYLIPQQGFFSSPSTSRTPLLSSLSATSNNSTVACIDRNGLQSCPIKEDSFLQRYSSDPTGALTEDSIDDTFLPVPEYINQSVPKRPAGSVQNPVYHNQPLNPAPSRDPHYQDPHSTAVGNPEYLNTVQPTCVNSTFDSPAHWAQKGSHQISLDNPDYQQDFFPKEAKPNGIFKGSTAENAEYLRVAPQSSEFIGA
T1 sequence (P00533 whole entry): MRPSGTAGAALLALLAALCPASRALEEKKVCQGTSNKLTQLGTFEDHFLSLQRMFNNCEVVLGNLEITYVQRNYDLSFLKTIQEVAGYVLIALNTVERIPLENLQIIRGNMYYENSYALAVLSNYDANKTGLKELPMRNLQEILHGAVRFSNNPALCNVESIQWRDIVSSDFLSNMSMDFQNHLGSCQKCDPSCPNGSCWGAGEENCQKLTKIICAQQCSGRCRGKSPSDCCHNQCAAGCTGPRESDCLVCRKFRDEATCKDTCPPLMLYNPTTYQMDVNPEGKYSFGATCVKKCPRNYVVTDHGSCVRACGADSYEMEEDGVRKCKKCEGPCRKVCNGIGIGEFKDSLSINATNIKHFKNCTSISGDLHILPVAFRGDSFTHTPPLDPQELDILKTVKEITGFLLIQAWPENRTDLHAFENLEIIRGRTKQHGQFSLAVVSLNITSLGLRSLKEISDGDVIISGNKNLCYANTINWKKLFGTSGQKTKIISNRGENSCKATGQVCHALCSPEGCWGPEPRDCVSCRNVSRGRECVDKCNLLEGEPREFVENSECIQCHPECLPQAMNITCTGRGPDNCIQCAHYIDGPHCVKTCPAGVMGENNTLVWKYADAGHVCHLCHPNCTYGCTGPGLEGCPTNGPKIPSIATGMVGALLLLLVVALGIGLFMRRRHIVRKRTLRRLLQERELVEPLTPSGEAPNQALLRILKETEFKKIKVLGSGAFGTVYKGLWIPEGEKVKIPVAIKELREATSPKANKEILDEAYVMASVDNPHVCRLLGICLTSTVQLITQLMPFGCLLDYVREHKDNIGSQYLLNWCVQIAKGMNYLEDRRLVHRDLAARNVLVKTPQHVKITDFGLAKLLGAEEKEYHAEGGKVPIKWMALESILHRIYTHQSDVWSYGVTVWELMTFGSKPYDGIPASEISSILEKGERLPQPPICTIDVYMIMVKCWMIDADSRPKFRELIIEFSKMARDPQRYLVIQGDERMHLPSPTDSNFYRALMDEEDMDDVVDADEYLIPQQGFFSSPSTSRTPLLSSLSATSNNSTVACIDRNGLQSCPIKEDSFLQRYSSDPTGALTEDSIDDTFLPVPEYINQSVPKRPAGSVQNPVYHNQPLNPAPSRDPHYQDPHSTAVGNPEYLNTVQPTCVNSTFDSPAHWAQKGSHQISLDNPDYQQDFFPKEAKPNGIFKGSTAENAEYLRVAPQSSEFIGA
Fibroblast growth factor receptor 1, sequence (P11362 whole entry): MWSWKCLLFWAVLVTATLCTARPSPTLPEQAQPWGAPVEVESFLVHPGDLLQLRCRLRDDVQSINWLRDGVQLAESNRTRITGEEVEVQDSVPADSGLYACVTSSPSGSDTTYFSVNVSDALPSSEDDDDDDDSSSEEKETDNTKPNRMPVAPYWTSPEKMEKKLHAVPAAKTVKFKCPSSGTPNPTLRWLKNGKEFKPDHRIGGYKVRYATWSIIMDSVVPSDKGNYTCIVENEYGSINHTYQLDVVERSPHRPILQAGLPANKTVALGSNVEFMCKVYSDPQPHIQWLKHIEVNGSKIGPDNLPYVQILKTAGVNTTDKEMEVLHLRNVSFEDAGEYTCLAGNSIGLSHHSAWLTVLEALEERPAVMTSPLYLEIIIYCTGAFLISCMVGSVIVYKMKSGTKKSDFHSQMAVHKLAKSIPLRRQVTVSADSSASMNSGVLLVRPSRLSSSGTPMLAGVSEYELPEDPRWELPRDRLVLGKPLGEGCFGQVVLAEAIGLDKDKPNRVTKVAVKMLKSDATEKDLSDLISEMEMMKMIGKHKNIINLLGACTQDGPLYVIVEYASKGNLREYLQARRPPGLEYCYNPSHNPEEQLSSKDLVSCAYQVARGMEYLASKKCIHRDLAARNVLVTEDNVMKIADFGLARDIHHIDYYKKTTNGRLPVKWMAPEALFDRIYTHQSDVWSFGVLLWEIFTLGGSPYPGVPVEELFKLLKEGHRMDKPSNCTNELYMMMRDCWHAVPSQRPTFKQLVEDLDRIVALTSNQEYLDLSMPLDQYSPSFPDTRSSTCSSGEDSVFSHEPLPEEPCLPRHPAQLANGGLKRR

Compound | IC50 [1] [nM] | IC50 [2] [nM] | IC50 [3] [nM] | IC50 [4] [nM] | further results
O=C(Nc1cc2c(Nc3ccc(F)c(Cl)c3)ncnc2cc1O[C@H]1CCOC1)N1CCC(N2CCCC2)CC1 | 9600 | 1590 | 265 | 317 | –
CS(=O)(=O)CCNC(=O)Nc1cc2c(Nc3ccc(F)c(Cl)c3)ncnc2cc1O[C@H]1CCOC1 | 35200 | 672 | 41 | 1570 | –
O=C(NCCN1CCCCC1)Nc1cc2c(Nc3ccc(F)c(Cl)c3)ncnc2cc1O[C@H]1CCOC1 | 3200 | 447 | 165 | 116 | –
O=C(Nc1cc2c(Nc3ccc(F)c(Cl)c3)ncnc2cc1O[C@H]1CCOC1)N1CCC(F)CC1 | 33300 | 1820 | 699 | 3040 | –
O=C(Nc1cc2c(Nc3ccc(F)c(Cl)c3)ncnc2cc1O[C@H]1CCOC1)N1CC(F)C1 | 13400 | 2170 | 967 | 5780 | –
O=C(NCCN1CCCC1)Nc1cc2c(Nc3ccc(F)c(Cl)c3)ncnc2cc1O[C@H]1CCOC1 | 5300 | 61 | 68 | 247 | inhibition [5]: Active; IC50 [6]: > 10000 nM; IC50 [7]: > 10000 nM; IC50 [8]: > 10000 nM; IC50 [9]: > 10000 nM; IC50 [10]: > 10000 nM; IC50 [11]: > 10000 nM; IC50 [12]: > 10000 nM; IC50 [13]: > 10000 nM; IC50 [14]: 6100 nM; IC50 [15]: 223 nM; IC50 [16]: 12 nM; IC50 [17]: 112 nM; inhibition [18]: Active; inhibition [19]: inactive; inhibition [20]: inactive; IC50 [21]: > 10000 nM
CN(C)CCCN(C)C(=O)Nc1cc2c(Nc3ccc(F)c(Cl)c3)ncnc2cc1O[C@H]1CCOC1 | 3300 | 5260 | 464 | 200 | –
C#CCNC(=O)Nc1cc2c(Nc3ccc(F)c(Cl)c3)ncnc2cc1O[C@H]1CCOC1 | 14800 | 374 | 232 | 3730 | –
O=C(Nc1cc2c(Nc3ccc(F)c(Cl)c3)ncnc2cc1O[C@H]1CCOC1)N1CCC(F)(F)CC1 | 32300 | 5310 | 859 | 1860 | –
O=C(NCCN1CCOCC1)Nc1cc2c(Nc3ccc(F)c(Cl)c3)ncnc2cc1O[C@H]1CCOC1 | 5300 | 49 | 82 | 307 | inhibition [5]: Active; inhibition [19]: inactive; inhibition [20]: inactive
COC(=O)/C=C/CNC(=O)Nc1cc2c(Nc3ccc(F)c(Cl)c3)ncnc2cc1O[C@H]1CCOC1 | 9600 | 265 | 404 | 1410 | –
CN(C)C/C=C/C(=O)Nc1cc2c(Nc3ccc(F)c(Cl)c3)ncnc2cc1O[C@H]1CCOC1 [AFATINIB] | 148 | – | – | – | –
COC(CCNC(=O)Nc1cc2c(Nc3ccc(F)c(Cl)c3)ncnc2cc1O[C@H]1CCOC1)OC | > 100000 | 400 | 544 | 22000 | –
CN(C)CCCNC(=O)Nc1cc2c(Nc3ccc(F)c(Cl)c3)ncnc2cc1O[C@H]1CCOC1 | 6300 | 276 | 24 | 226 | inhibition [22]: Active; inhibition [23]: Active; inhibition [24]: Active; inhibition [25]: Dose-dependent effect
CN1CCN(C(=O)Nc2cc3c(Nc4ccc(F)c(Cl)c4)ncnc3cc2O[C@H]2CCOC2)CC1 | 12300 | 5580 | 464 | 675 | –
